This passage reports IC50 results from patent publication US20190119282A1, “IMIDAZOPYRIDAZINES USEFUL AS INHIBITORS OF THE PAR-2 SIGNALING PATHWAY” (Vertex Pharmaceuticals Incorporated, priority 2013, published 2019).

For test [1], the target named is T1, PAR2 (HT-29 cells, trypsin activation) (Homo sapiens, UniProt P55085).
T1 construct: host or cells: HT-29 cells
T1 sequence (P55085 26-397): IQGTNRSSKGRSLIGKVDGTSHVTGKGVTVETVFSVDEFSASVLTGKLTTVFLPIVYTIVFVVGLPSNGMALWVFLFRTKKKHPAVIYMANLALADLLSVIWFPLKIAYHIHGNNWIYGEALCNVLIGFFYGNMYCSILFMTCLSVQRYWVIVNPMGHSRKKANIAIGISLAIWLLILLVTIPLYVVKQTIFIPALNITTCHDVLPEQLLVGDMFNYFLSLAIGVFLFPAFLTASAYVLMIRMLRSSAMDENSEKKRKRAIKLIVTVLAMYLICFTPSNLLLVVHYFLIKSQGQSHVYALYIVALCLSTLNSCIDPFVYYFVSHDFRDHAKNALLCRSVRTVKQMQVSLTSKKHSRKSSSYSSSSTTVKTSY
Description: Ca FLIPR TETRA assay, ANTAGONIST mode, stimulation with 3.1 U/mL trypsin. It is filed as cell-based. Conditions: HT-29 cells, stimulation with 3.1 U/mL trypsin. The method in brief:
(§1)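 Intracellular calcium is measured by fluorescence in HT-29 cells loaded with calcium 5 reagent. Compounds sit on the cells 30 min at room temperature before challenge with trypsin (3.1 U/mL) or SLIGKV (8 μM) for PAR2, or with thrombin (1 U/mL) or UTP (0.6 μM) as counter-stimuli.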

The target of test [2] is T2, PAR2 (HT-29 cells, SLIGKV activation) (Homo sapiens, UniProt P55085).
T2 construct: host or cells: HT-29 cells
T2 sequence (P55085 26-397): T1 sequence (P55085 26-397)
Description: Ca FLIPR TETRA assay, ANTAGONIST mode, stimulation with 8 μM SLIGKV. The class given is cell-based. Conditions: HT-29 cells, stimulation with 8 μM SLIGKV. The method in brief:
as §1

Test [3] has as its system Thrombin-stimulated Ca2+ response in HT-29 cells. Description: Ca FLIPR TETRA assay, ANTAGONIST mode, stimulation with 1 U/mL Thrombin. The class given is cell-based, human. Conditions: Homo sapiens; HT-29 cells, stimulation with 1 U/mL Thrombin. The essentials: as §1
Test [4] relates to UTP-stimulated Ca2+ response in HT-29 cells. The test can be described thus: Ca FLIPR TETRA assay, ANTAGONIST mode, stimulation with 0.6 μM UTP. The class given is cell-based, human. Conditions: Homo sapiens; HT-29 cells, stimulation with 0.6 μM UTP. The essentials: as §1

The IC50 is the concentration that inhibits the measured activity by half. Consider `CC(C)c1cc(-c2ccc(F)cc2)nn2cc(C(=O)N3CCN(C(=O)C(O)c4ccccc4)[C@@H](C)C3)nc12` (some centres unmarked) [Compound I-117], for which the concentration for half-maximal inhibition (IC50) worked out at 0.9 nM in test [1], 0.3 nM in test [2], 9600 nM in test [3] and 8100 nM in test [4].

For the compound `CC[C@@H](O)C(=O)N1CCN(C(=O)c2cn3nc(-c4ccc(F)cc4)cc(C(C)C)c3n2)C[C@@H]1C` [Compound I-118], the IC50 in test [1] amounted to 1000 nM; in test [2], 16 nM; in test [3] it was 31000 nM; in test [4], 27000 nM.

On to `CC(O)C(=O)N1CCN(C(=O)c2cn3nc(-c4ccc(F)cc4)cc(C(C)C)c3n2)C[C@@H]1C` (some centres unmarked) [Compound I-119], for which the concentration for half-maximal inhibition (IC50) in test [1] was 2100 nM; in test [2] it was 200 nM; in test [3], greater than 50000 nM; in test [4] it was greater than 50000 nM.

On to `CC(C)c1cc(-c2ccc(F)cc2)nn2cc(C(=O)N3CCOCC3(C)C)nc12` [Compound I-120], for which the concentration for half-maximal inhibition (IC50) in test [1] worked out at 1000 nM; in test [2], 130 nM; in test [3] it was 20000 nM; in test [4], 24000 nM.

For the compound `CC(C)c1cc(-c2ccc(F)cc2)nn2cc(C(=O)N3CCN(C(=O)CC4CCCC4)[C@@H](C)C3)nc12` [Compound I-121], the IC50 in test [1] is 7 nM; in test [2], 4 nM; in test [3], 9200 nM; in test [4] it was greater than 500 nM.

Consider `CC(C)CC(=O)N1CCN(C(=O)c2cn3nc(-c4ccc(F)cc4)cc(C(C)C)c3n2)C[C@@H]1C` [Compound I-122], for which the IC50 in test [1] came to 23 nM; in test [2] it was 7 nM; in test [3], 10000 nM; in test [4], 10000 nM.

Consider `CC(O)CC(=O)N1CCN(C(=O)c2cn3nc(-c4ccc(F)cc4)cc(C(C)C)c3n2)C[C@@H]1C` (some centres unmarked) [Compound I-123], for which the IC50 in test [1] was 340 nM; in test [2], 200 nM; in test [3], greater than 50000 nM; in test [4], greater than 50000 nM.

On to `CCCC(=O)N1CCN(C(=O)c2cn3nc(-c4ccc(F)cc4)cc(C(C)C)c3n2)C[C@@H]1C` [Compound I-124], for which the half-maximal inhibitory concentration (IC50) in test [1] stood at 160 nM; in test [2] it was 26 nM; in test [3], 15000 nM; in test [4], 13000 nM.

As to `CC(C)c1cc(-c2ccc(F)cc2)nn2cc(C(=O)N3CCN(C(=O)Cc4ccsc4)[C@@H](C)C3)nc12` [Compound I-125], the IC50 in test [1] is 5 nM; in test [2], 2 nM; in test [3] it was greater than 500 nM; in test [4], greater than 500 nM.

`C#CCCC(=O)N1CCN(C(=O)c2cn3nc(-c4ccc(F)cc4)cc(C(C)C)c3n2)C[C@@H]1C` [Compound I-126]: the IC50 in test [1] came out at 210 nM; in test [2], 25 nM; in test [3], 13000 nM; in test [4], 13000 nM.

For `CC(C)CCC(=O)N1CCN(C(=O)c2cn3nc(-c4ccc(F)cc4)cc(C(C)C)c3n2)C[C@@H]1C` [Compound I-127], the IC50 in test [1] is 4 nM; in test [2], 2 nM; in test [3], 6500 nM; in test [4], 5400 nM.

As for `CC(C)c1cc(-c2ccc(F)cc2)nn2cc(C(=O)N3CCN(C(=O)CC4CCCCC4)[C@@H](C)C3)nc12` [Compound I-128], the concentration for half-maximal inhibition (IC50) in test [1] came to 2 nM; in test [2], 2 nM; in test [3], 30000 nM; in test [4], 31000 nM.

`COCCC(=O)N1CCN(C(=O)c2cn3nc(-c4ccc(F)cc4)cc(C(C)C)c3n2)C[C@@H]1C` [Compound I-129]: the IC50 in test [1] stood at 500 nM; in test [2] it was 120 nM; in test [3] it was 41000 nM; in test [4], 37000 nM.

Take `CC(C)c1cc(-c2ccc(F)cc2)nn2cc(C(=O)N3CCN(C(=O)CC(C)(C)C)[C@@H](C)C3)nc12` [Compound I-130]: the IC50 was 6 nM in test [1], 2 nM in test [2], 4500 nM in test [3] and 5000 nM in test [4].

In the case of `CC(C)c1cc(-c2ccc(F)cc2)nn2cc(C(=O)N3CCN(C(=O)CC(C)(C)O)[C@@H](C)C3)nc12` [Compound I-131], the IC50 in test [1] turned out to be 650 nM; in test [2], 67 nM; in test [3] it was 33000 nM; in test [4] it was 32000 nM.

Turning to `COc1cccc(CC(=O)N2CCN(C(=O)c3cn4nc(-c5ccc(F)cc5)cc(C(C)C)c4n3)C[C@@H]2C)c1` [Compound I-132], the 50% inhibitory concentration (IC50) in test [1] is 5 nM; in test [2], 3 nM; in test [3], greater than 500 nM; in test [4] it was greater than 500 nM.

As for `COc1ccc(CC(=O)N2CCN(C(=O)c3cn4nc(-c5ccc(F)cc5)cc(C(C)C)c4n3)C[C@@H]2C)cc1` [Compound I-133], the IC50 in test [1] was 6 nM; in test [2], 1 nM; in test [3], 36000 nM; in test [4], greater than 500 nM.

As to `Cc1cc(C)n(CCC(=O)N2CCN(C(=O)c3cn4nc(-c5ccc(F)cc5)cc(C(C)C)c4n3)C[C@@H]2C)n1` [Compound I-134], the half-inhibitory concentration (IC50) in test [1] stood at 280 nM; in test [2], 12 nM; in test [3] it was 10000 nM; in test [4], 7900 nM.

Take `CC(C)c1cc(-c2ccc(F)cc2)nn2cc(C(=O)N3CCN(C(=O)CCn4cccn4)[C@@H](C)C3)nc12` [Compound I-135]: the concentration for half-maximal inhibition (IC50) was 220 nM in test [1], 22 nM in test [2], 16000 nM in test [3] and 17000 nM in test [4].

Turning to `Cc1noc(C)c1CCC(=O)N1CCN(C(=O)c2cn3nc(-c4ccc(F)cc4)cc(C(C)C)c3n2)C[C@@H]1C` [Compound I-136], the half-inhibitory concentration (IC50) was 34 nM in test [1], 7 nM in test [2], greater than 5000 nM in test [3] and 7700 nM in test [4].

As for `CC(C)c1cc(-c2ccc(F)cc2)nn2cc(C(=O)N3CCN(C(=O)CCN4CCCCC4=O)[C@@H](C)C3)nc12` [Compound I-137], the IC50 came out at 240 nM in test [1], 42 nM in test [2], 43000 nM in test [3] and 40000 nM in test [4].

For `CC(C)c1cc(-c2ccc(F)cc2)nn2cc(C(=O)N3CCN(C(=O)CCC(F)(F)F)[C@@H](C)C3)nc12` [Compound I-138], the IC50 is 52 nM in test [1], 11 nM in test [2], greater than 5000 nM in test [3] and greater than 5000 nM in test [4].

With `CC(C)CCCC(=O)N1CCN(C(=O)c2cn3nc(-c4ccc(F)cc4)cc(C(C)C)c3n2)C[C@@H]1C` [Compound I-139], the IC50 in test [1] is 9 nM; in test [2], 2 nM; in test [3] it was 25000 nM; in test [4] it was greater than 500 nM.

As for `CC(C)c1cc(-c2ccc(F)cc2)nn2cc(C(=O)N3CCN(C(=O)CC4CC4)[C@@H](C)C3)nc12` [Compound I-140], the IC50 in test [1] was 250 nM; in test [2] it was 14 nM; in test [3] it was 15000 nM; in test [4], 14000 nM.

Take `CC(C)c1cc(-c2ccc(F)cc2)nn2cc(C(=O)N3CCN(C(=O)CC4CCOCC4)[C@@H](C)C3)nc12` [Compound I-141]: the half-maximal inhibitory concentration (IC50) in test [1] was 130 nM; in test [2], 16 nM; in test [3], 19000 nM; in test [4] it was 24000 nM.

Turning to `CC(C)c1cc(-c2ccc(F)cc2)nn2cc(C(=O)N3CCN(C(=O)Cc4cccnc4)[C@@H](C)C3)nc12` [Compound I-142], the half-inhibitory concentration (IC50) in test [1] was determined as 280 nM; in test [2], 35 nM; in test [3] it was 26000 nM; in test [4] it was 24000 nM.

Take `CCOCCC(=O)N1CCN(C(=O)c2cn3nc(-c4ccc(F)cc4)cc(C(C)C)c3n2)C[C@@H]1C` [Compound I-143]: the IC50 is 290 nM in test [1], 41 nM in test [2], 22000 nM in test [3] and 21000 nM in test [4].

On to `CC(C)c1cc(-c2ccc(F)cc2)nn2cc(C(=O)N3CCN(C(=O)CCC4CCC4)[C@@H](C)C3)nc12` [Compound I-144], for which the half-inhibitory concentration (IC50) in test [1] was 5 nM; in test [2], 2 nM; in test [3], 6600 nM; in test [4], 5200 nM.

As to `CC(C)c1cc(-c2ccc(F)cc2)nn2cc(C(=O)N3CCN(C(=O)CC4CCOC4)[C@@H](C)C3)nc12` (some centres unmarked) [Compound I-145], the concentration for half-maximal inhibition (IC50) in test [1] stood at 330 nM; in test [2], 72 nM; in test [3], 24000 nM; in test [4], 23000 nM.

For the compound `CCC(C)(O)CC(=O)N1CCN(C(=O)c2cn3nc(-c4ccc(F)cc4)cc(C(C)C)c3n2)C[C@@H]1C` (some centres unmarked) [Compound I-146], the IC50 in test [1] was determined as 1000 nM; in test [2], 16 nM; in test [3] it was 20000 nM; in test [4], 19000 nM.

As for `CCCCC(=O)N1CCN(C(=O)c2cn3nc(-c4ccc(F)cc4)cc(C(C)C)c3n2)C[C@@H]1C` [Compound I-147], the IC50 was found to be 61 nM in test [1], 6 nM in test [2], 8000 nM in test [3] and 6600 nM in test [4].

For the compound `CC(C)c1cc(-c2ccc(F)cc2)nn2cc(C(=O)N3CCN(C(=O)C4(NC(=O)OC(C)(C)C)CC4)[C@@H](C)C3)nc12` [Compound I-148], the IC50 was 96 nM in test [1], 52 nM in test [2], greater than 50000 nM in test [3] and 39000 nM in test [4].
